{"source": "patent US8299052B2", "about": "“Pharmaceutical compositions and methods for improved bacterial eradication” (Shionogi Inc., priority 2006, dated 2012)", "key": {"[1]": {"tested_on": "Streptococcus pyogenes", "conditions": "cited from earlier work"}, "[2]": {"tested_on": "Streptococcus pyogenes", "conditions": "Omnicef label, Tack et al, AAC 1998; cited from earlier work"}, "[3]": {"tested_on": "Streptococcus pyogenes", "experiment": "MIC-90 of penicillin VK for Streptococcus pyogenes", "type": "cell-based", "conditions": "where study did not report MIC, assumed equal to MIC determined in Applicants' Phase III trial", "description": "The information in Table 1 was collected from several studies published in the literature. Information such as drug, regimen, Days Tx and Eradication can be taken directly from the literature articles. Information such as the MIC will often have been determined as part of the study and may be reported in the article, but in many cases it may not have been determined or reported."}, "[4]": {"tested_on": "Streptococcus pyogenes", "experiment": "Daily T>MIC and Total T>MIC calculated from pharmacokinetic model (WinNonlin) plasma profiles", "description": "The Daily T>MIC must also be calculated for each different regimen, and at the relevant MIC. This information was not presented in any of the articles and so it was calculated by Applicants. The Daily T>MIC is calculated for each regimen by creating a plasma profile from pharmacokinetic data published in the literature. Prior to creating the plasma profile a pharmacokinetic model is developed from plasma profiles from one or more doses reported in the literature. […] The models are industry standard compartmental models, generated with WinNonlin, a common program used in the pharmaceutical industry for pharmacokinetic analysis and modeling. Once the Daily T>MIC for each regimen has been calculated, the Total T>MIC is calculated by multiplying the Daily T>MIC by the Duration of Therapy (Days Tx in the table). Thus a composite parameter, Total T>MIC, is constructed that includes both factors relevant to eradication of Streptococcus pyogenes by a given regimen. The equation can then be used to determine the Total T>MIC required to achieve eradication rates ≧85% (or any other desired eradication rate)."}}, "note": "Like-named read-outs stand apart in the source and are kept apart here. Marks after values point to notes of the source that are not given here.", "data": [{"smiles": "CC1(C)S[C@@H]2[C@H](NC(=O)COc3ccccc3)C(=O)N2[C@H]1C(=O)O", "note": "[Pen VK, penicillin VK]", "values": [{"measurement": "% Erad", "setting": "[1]; 250 QID, Days Tx 10, MIC-90 0.03, Omnicef label, Tack et al, AAC 1998", "result": 82, "unit": "%"}, {"measurement": "% Erad", "setting": "[1]; 250 QID, Days Tx 10, McCarty 1993", "result": 100, "unit": "%"}, {"measurement": "% Erad", "setting": "[1]; 250 QID, Days Tx 10, Mullen 992", "result": 85.5, "unit": "%"}, {"measurement": "% Erad", "setting": "[1]; 250 TID, Days Tx 5, Gerber et al, AJDC 1987", "result": 92, "unit": "%"}, {"measurement": "% Erad", "setting": "[1]; 250 TID, Days Tx 10, Gerber et al, AJDC 1987", "result": 96, "unit": "%"}, {"measurement": "% Erad", "setting": "[1]; 500 TID, Days Tx 0 (spontaneous eradication), Zwart et al. BMJ 2000", "result": 7, "unit": "%"}, {"measurement": "% Erad", "setting": "[1]; 500 TID, Days Tx 3, Zwart et al, BMJ 2000", "result": 41, "unit": "%"}, {"measurement": "% Erad", "setting": "[1]; 500 TID, Days Tx 7, Zwart et al, BMJ 2000", "result": 72, "unit": "%"}, {"measurement": "% Erad", "setting": "[1]; 500 TID, Days Tx 10, Ketek SBA, Norrby et al, Scand J Infect Dis 2001", "result": 89, "unit": "%"}, {"measurement": "% Erad", "setting": "[1]; 600 TID, Days Tx 10, Carbon et al, J Antimicrob Chemother 1995", "result": 86, "unit": "%"}, {"measurement": "% Erad", "setting": "[1]; 750 QD, Days Tx 10, Gerber et al, AJDC 1989", "result": 82, "unit": "%"}, {"measurement": "% Erad", "setting": "[1]; 800 BID, Days Tx 5, Stromberg et al, Scand J Infect Dis 1988", "result": 73, "unit": "%"}, {"measurement": "% Erad", "setting": "[1]; 800 BID, Days Tx 10, Stromberg et al, Scand J Infect Dis 1988", "result": 94, "unit": "%"}, {"measurement": "MIC-90", "setting": "[2]", "result": "0.03* μg/mL"}, {"measurement": "MIC90", "setting": "[3]", "result": 0.015, "unit": "µg/mL"}, {"measurement": "Daily T > MIC", "setting": "[4]; 250 QID, MIC-90 0.015", "result": 55.30, "unit": "%"}, {"measurement": "Daily T > MIC", "setting": "[4]; 250 QID, MIC-90 0.03", "result": 46.40, "unit": "%"}, {"measurement": "Daily T > MIC", "setting": "[4]; 250 TID, MIC-90 0.015", "result": 39.29, "unit": "%"}, {"measurement": "Daily T > MIC", "setting": "[4]; 500 TID, MIC-90 0.015", "result": 48.10, "unit": "%"}, {"measurement": "Daily T > MIC", "setting": "[4]; 600 TID, MIC-90 0.015", "result": 49.80, "unit": "%"}, {"measurement": "Daily T > MIC", "setting": "[4]; 750 QD, MIC-90 0.015", "result": 17.30, "unit": "%"}, {"measurement": "Daily T > MIC", "setting": "[4]; 800 BID, MIC-90 0.015", "result": 35.00, "unit": "%"}]}]}
